# System: tumor associated macrophages (TAMs) from LLC tumors
# Test: RT-PCR gene expression in tumor associated macrophages sorted from LLC tumors
# Format: in vivo, mice
# Source text: RT-PCR analysis of cDNAs generated from mRNAs reflecting tumor associated macrophages (TAMs) isolated from LLC tumors grown in WT animals and treated with Compound 3. ***p<0.001**p<0.01 and *p<0.05, t test. […] Expression of gene of interest is normalized to GAPDH. […] Statistical significance is accessed by t test. For example, Compound 3 augmented IL1 gene expression in TAMs 8-fold and suppressed Arginase (Arg) 98% in TAMs isolated from LLC tumors in vivo.
# [1] = LLC tumors in WT animals, vs vehicle
# [2] = TAMs isolated from LLC tumors in vivo, vs vehicle
smiles,measurement,setting,value
"Cc1nn(-c2ccnc(Nc3ccc(-c4csc5c(=O)cc(N6CCOCC6)oc45)cc3)n2)cc1CN1CCC1 [Compound 3, 3-[p-(4-{4-[(1-Azetidinyl)methyl]-3-methyl-1H-pyrazol-1-yl}-2-pyrimidinylamino)phenyl]-5-morpholino-4-oxa-1-thia-7-indenone]",expression of immune response genes in TAMs,[1],activated the expression of immune response genes
same,expression of macrophage M2 immunosuppressive genes in TAMs,[1],suppressed the expression of macrophage M2 immunosuppressive genes
same,Nos2 gene expression in macrophages sorted from LLC tumors,"TAMs from LLC tumors in treated WT mice, normalized to GAPDH, vehicle 0.95 ± 0.06",21 ± 0.19
same,Vegf gene expression in macrophages sorted from LLC tumors,"TAMs from LLC tumors in treated WT mice, normalized to GAPDH, vehicle 0.995 ± 0.06",0.56 ± 0.05
same,Il1 gene expression in macrophages sorted from LLC tumors,"TAMs from LLC tumors in treated WT mice, normalized to GAPDH, vehicle 1.0 ± 0.04",8.3 ± 1.43
same,Ifng gene expression in macrophages sorted from LLC tumors,"TAMs from LLC tumors in treated WT mice, normalized to GAPDH, vehicle 1 ± 0.3",3.26 ± 1.04
same,Il6 gene expression in macrophages sorted from LLC tumors,"TAMs from LLC tumors in treated WT mice, normalized to GAPDH, vehicle 1.0 ± 0.3",1.8 ± 0.16
same,Tgfb gene expression in macrophages sorted from LLC tumors,"TAMs from LLC tumors in treated WT mice, normalized to GAPDH, vehicle 1 ± 0.7",0.35 ± 0.014
same,Arg gene expression in macrophages sorted from LLC tumors,"TAMs from LLC tumors in treated WT mice, normalized to GAPDH, vehicle 1 ± 0.9",0.08 ± 0.004
same,Arginase (Arg) suppression in TAMs,[2],98%
same,"IL1 gene expression in TAMs, augmentation",[2],8 fold
